# According to patent US8211662B2, “Nitroreductase enzymatic substrates” (Biomerieux, priority 2007, dated 2012):
# Legend:
# Test in all cases: Nitroreductase detection on Columbia agar, colonies read under UV
# Details in all cases: Table 4; 100 mg/l in Columbia agar, 24 h 37° C., UV 360-365 nm
# [1] = system: Bacillus subtilis NCTC 9372; type: cell-based; set-up: key: − = no fluorescence detected; +/− = weak fluorescence; + = medium fluorescence; ++ = strong fluorescence
# Description: (§1) A mass of 40 mg of each substrate was dissolved in 4 ml of dimethylformamide (DMF). This solution was entirely taken up in 400 ml of Columbia agar autoclaved beforehand and kept molten at 50° C. The final concentration for each substrate was 100 mg/l.
# (§2) Each of the media was distributed into Petri dishes 90 mm in diameter, in a proportion of 20 ml per dish.
# (§3) 18 microorganism strains derived from collections and belonging to various species of bacteria and of yeasts were inoculated onto these media by semi-quantitative isolation of 10 μl of a suspension at 0.5 McFarland diluted to 1/20. The media were incubated for 24 hours at 37° C., then the colonies formed were examined visually under UV illumination at 360-365 nm.
# [2] = system: Candida albicans ATCC 90028; type: cell-based; set-up: key: − = no fluorescence detected; +/− = weak fluorescence; + = medium fluorescence; ++ = strong fluorescence
# Description: as §1, §2, §3
# [3] = system: Citrobacter freundii 46262 (wild); type: cell-based; set-up: key: − = no fluorescence detected; +/− = weak fluorescence; + = medium fluorescence; ++ = strong fluorescence
# Description: as §1, §2, §3
# [4] = system: Enterobacter cloacae NCTC 11936; type: cell-based; set-up: key: − = no fluorescence detected; +/− = weak fluorescence; + = medium fluorescence; ++ = strong fluorescence
# Description: as §1, §2, §3
# [5] = system: Enterococcus faecalis NCTC 775; type: cell-based; set-up: key: − = no fluorescence detected; +/− = weak fluorescence; + = medium fluorescence; ++ = strong fluorescence
# Description: as §1, §2, §3
# [6] = system: Enterococcus faecium NCTC 7171; type: cell-based; set-up: key: − = no fluorescence detected; +/− = weak fluorescence; + = medium fluorescence; ++ = strong fluorescence
# Description: as §1, §2, §3
# [7] = system: Escherichia coli NCTC 10418; type: cell-based; set-up: key: − = no fluorescence detected; +/− = weak fluorescence; + = medium fluorescence; ++ = strong fluorescence
# Description: as §1, §2, §3
# [8] = system: Listeria monocytogenes NCTC 11994; type: cell-based; set-up: key: − = no fluorescence detected; +/− = weak fluorescence; + = medium fluorescence; ++ = strong fluorescence
# Description: as §1, §2, §3
# [9] = system: Providencia rettgeri NCTC 7475; type: cell-based; set-up: key: − = no fluorescence detected; +/− = weak fluorescence; + = medium fluorescence; ++ = strong fluorescence
# Description: as §1, §2, §3
# [10] = system: Pseudomonas aeruginosa NCTC 10662; type: cell-based; set-up: key: − = no fluorescence detected; +/− = weak fluorescence; + = medium fluorescence; ++ = strong fluorescence
# Description: as §1, §2, §3
# [11] = system: Serratia marcescens NCTC 10211; type: cell-based; set-up: key: − = no fluorescence detected; +/− = weak fluorescence; + = medium fluorescence; ++ = strong fluorescence
# Description: as §1, §2, §3
# [12] = system: Staphylococcus aureus NCTC 6571; type: cell-based; set-up: key: − = no fluorescence detected; +/− = weak fluorescence; + = medium fluorescence; ++ = strong fluorescence
# Description: as §1, §2, §3
# [13] = system: Staphylococcus epidermidis NCTC 11047; type: cell-based; set-up: key: − = no fluorescence detected; +/− = weak fluorescence; + = medium fluorescence; ++ = strong fluorescence
# Description: as §1, §2, §3
# [14] = system: Streptococcus pyogenes NCTC 8306; type: cell-based; set-up: key: − = no fluorescence detected; +/− = weak fluorescence; + = medium fluorescence; ++ = strong fluorescence
# Description: as §1, §2, §3
# [15] = system: Yersinia enterocolitica NCTC 11176; type: cell-based; set-up: key: − = no fluorescence detected; +/− = weak fluorescence; + = medium fluorescence; ++ = strong fluorescence
# Description: as §1, §2, §3
# [16] = system: Acinetobacter baumanii ATCC 19606; type: cell-based; set-up: key to Intensity of fluorescence, Acinetobacter baumanii ATCC 19606 / Intensity of the fluorescence, Acinetobacter baumanii ATCC 19606: − = no fluorescence detected; +/− = weak fluorescence; + = medium fluorescence; ++ = strong fluorescence
# Description: as §1, §2, §3
# [17] = system: Salmonella typhimurium NCTC 74; type: cell-based; set-up: key to Intensity of fluorescence, Salmonella typhimurium NCTC 74 / F: fluorescence (intensity), Salmonella typhimurium NCTC 74 / Intensity of the fluorescence, Salmonella typhimurium NCTC 74: − = no fluorescence detected; +/− = weak fluorescence; + = medium fluorescence; ++ = strong fluorescence
# Description: as §1, §2, §3
# [18] = system: Morganella morganii 462403 (wild); type: cell-based; set-up: key to Intensity of fluorescence, Morganella morganii 462403 / F: fluorescence (intensity), Morganella morganii 462403 (wild) / Intensity of the fluorescence, Morganella morganii 462403 (wild): − = no fluorescence detected; +/− = weak fluorescence; + = medium fluorescence; ++ = strong fluorescence
# Description: as §1, §2, §3
# MRSA NCTC 11939 = type: cell-based, Staphylococcus aureus; set-up: key: − = no fluorescence detected; +/− = weak fluorescence; + = medium fluorescence; ++ = strong fluorescence
# Description: as §1, §2, §3
# [19] = system: Candida glabrata NCPF 3943; type: cell-based; set-up: key to Intensity of fluorescence, Candida glabrata NCPF3943 / F: fluorescence (intensity), Candida glabrata NCPF 3943 / Intensity of the fluorescence, Candida glabrata NCPF 3943: − = no fluorescence detected; +/− = weak fluorescence; + = medium fluorescence; ++ = strong fluorescence
# Description: as §1, §2, §3
compound,measurement,setting,value
CN1CCN(c2ccc([N+](=O)[O-])c(-c3nc4ccccc4s3)c2)CC1 [Substrate 23],"Intensity of the fluorescence, Bacillus subtilis NCTC 9372",[1],−
same,"Intensity of the fluorescence, Candida albicans ATCC 90028",[2],−
same,"Intensity of the fluorescence, Citrobacter freundii 46262 (wild)",[3],+
same,"Intensity of the fluorescence, Enterobacter cloacae NCTC 11936",[4],+
same,"Intensity of the fluorescence, Enterococcus faecails NCTC 775",[5],−
same,"Intensity of the fluorescence, Enterococcus faecium NCTC 7171",[6],−
same,"Intensity of the fluorescence, Escherichia coli NCTC 10418",[7],−
same,"Intensity of the fluorescence, Listeria monocytogenes NCTC 11994",[8],−
same,"Intensity of the fluorescence, Providencia rettgeri NCTC 7475",[9],+
same,"Intensity of the fluorescence, Pseudomonas aeruginosa NCTC 10662",[10],+
same,"Intensity of the fluorescence, Serratia marcescens NCTC 10211",[11],+
same,"Intensity of the fluorescence, Staphylococcus aureus NCTC 6571",[12],V.
same,"Intensity of the fluorescence, Staphylococcus epidermidis NCTC 11047",[13],−
same,"Intensity of the fluorescence, Streptococcus pyogenes NCTC 8306",[14],−
same,"Intensity of the fluorescence, Yersinia enterocolitica NCTC 11176",[15],−
same,"Intensity of the fluorescence, Acinetobacter baumanii ATCC 19606",[16],−
same,"Intensity of the fluorescence, Salmonella typhimurium NCTC 74",[17],+
same,"Intensity of the fluorescence, Morganella morganii 462403 (wild)",[18],+
same,"Intensity of the fluorescence, MRSA NCTC 11939",MRSA NCTC 11939,+/−
same,"Intensity of the fluorescence, Candida glabrata NCPF 3943",[19],−
